Structures are written as SMILES.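 Five compound concentrations were applied to cells in 96-well plates for 48 hours; endpoints were derived by simple linear interpolation of the resulting dose-response curve. TGI: concentration producing complete growth inhibition.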 Where a SMILES comes first, the peptide text is derived from it. The star is where a group is joined. Cbz = O=C(OCc1ccccc1)*; OBn = c1ccc(CO*)cc1

For one assay, the system named is SK-MEL-5 melanoma. Description: NCI tumour cell line growth inhibition, 48 h.
As to `O=c1n(/N=C/c2ccccc2)c(=O)n2n1C1C=CC2CC1`, the TGI is more than 100 µM.

Turning to `O=C(NC(C(F)(F)F)(C(F)(F)F)P(=O)(c1ccccc1)c1ccccc1)C(C(F)(F)F)C(F)(F)F`, the TGI came to 37 µM.

`O=C1CC(=O)NC(=NN2C(=O)CSC2c2ccc(Cl)c(Cl)c2)N1` (configuration not stated) yielded a TGI of more than 100 µM.

With `COC(=O)[C@H](Cc1ccccc1)NC(=O)NCCN(CCNC(=O)N[C@@H](Cc1ccccc1)C(=O)OC)C(=O)N[C@@H](Cc1ccccc1)C(=O)OC`, the TGI was 37.4 µM.

Regarding `COc1cc2c(cc1OC)-c1[nH]c3ccc(C#N)cc3c1CC(=O)N2`, the TGI came out at 28 µM.

`CCOC(=O)/C(N=Nc1ccc(-n2c(C)nc3ccccc3c2=O)cc1)=C(/C)O` returned a TGI of 16 µM.

Molecule `C[C@@]12C=CC3C/C(=N\C(N)=S)C=C(CCCC4OCCO4)[C@]3(CC1)C2` (some centres not stated) registered a TGI of 24.8 µM.

`CC(C)c1ccccc1SC1CC(=O)CC(Sc2ccccc2C(C)C)C12O[C@H](c1ccccc1)[C@@H](c1ccccc1)O2` (some centres not stated): the TGI is more than 100 µM.

`CSc1nc2ccccc2c(=O)n1/N=C1\C(=O)N(CN2CCCCC2)c2ccc(Cl)cc21` displayed a TGI of more than 100 µM.

For the next assay, the system named is T-47D breast. Nature of the assay: NCI tumour cell line growth inhibition, 48 h.
In turn, `O=C(c1ccc(Cl)cc1Cl)N(C(=O)N1CCC(c2ccccc2)CC1)c1ccccc1` had a TGI of more than 100 µM.

`COC(=O)CNC(=O)C(C)NC(=O)C(CC(=O)OCc1ccccc1)NC(=O)OCc1ccccc1` (stereo not drawn) (Cbz-Asp(OBn)-Ala-Gly-OMe; configuration not given here): the TGI came to 70.3 µM.

In the case of `Oc1ccccc1/C=N/Nc1nnc2c3ccccc3c3ccccc3c2n1`, the TGI was more than 100 µM.

`CC(C)=CCOc1cc(NC(=S)c2ccoc2C)ccc1Cl` returned a TGI of more than 100 µM.

`N#CC1(C#N)C2CCCCC23OC(=N)C1(C#N)C(c1ccco1)O3` (configuration not stated): the TGI turned out to be 51.8 µM.

For the molecule `O=c1n(/N=C/c2ccccc2)c(=O)n2n1C1C=CC2CC1`, the TGI was more than 100 µM.

In turn, `O=C(NC(C(F)(F)F)(C(F)(F)F)P(=O)(c1ccccc1)c1ccccc1)C(C(F)(F)F)C(F)(F)F` registered a TGI of more than 100 µM.

`O=C1CC(=O)NC(=NN2C(=O)CSC2c2ccc(Cl)c(Cl)c2)N1` (configuration not stated) gave a TGI of more than 100 µM.

For the molecule `COC(=O)[C@H](Cc1ccccc1)NC(=O)NCCN(CCNC(=O)N[C@@H](Cc1ccccc1)C(=O)OC)C(=O)N[C@@H](Cc1ccccc1)C(=O)OC`, the TGI amounted to 49.6 µM.

`COc1cc2c(cc1OC)-c1[nH]c3ccc(C#N)cc3c1CC(=O)N2` returned a TGI of more than 100 µM.

As for `COc1cc(Br)c(OC)c2c(OC)cc(C)cc12`, the TGI was more than 100 µM.

On to `CCOC(=O)/C(N=Nc1ccc(-n2c(C)nc3ccccc3c2=O)cc1)=C(/C)O`, for which the TGI is 92.3 µM.

`C[C@@]12C=CC3C/C(=N\C(N)=S)C=C(CCCC4OCCO4)[C@]3(CC1)C2` (some centres not stated): the TGI turned out to be 57.9 µM.

On to `CC(C)c1ccccc1SC1CC(=O)CC(Sc2ccccc2C(C)C)C12O[C@H](c1ccccc1)[C@@H](c1ccccc1)O2` (some centres not stated), for which the TGI was 82.9 µM.

`CSc1nc2ccccc2c(=O)n1/N=C1\C(=O)N(CN2CCCCC2)c2ccc(Cl)cc21`: the TGI came to 54.8 µM.

The test system of another assay is SF-268 CNS. Description: NCI tumour cell line growth inhibition, 48 h.
In turn, `Oc1ccccc1/C=N/Nc1nnc2c3ccccc3c3ccccc3c2n1` showed a TGI of more than 100 µM.

Consider `CC(C)=CCOc1cc(NC(=S)c2ccoc2C)ccc1Cl`, for which the TGI was more than 100 µM.

Turning to `N#CC1(C#N)C2CCCCC23OC(=N)C1(C#N)C(c1ccco1)O3` (configuration not stated), the TGI was 67.4 µM.

Regarding `O=c1n(/N=C/c2ccccc2)c(=O)n2n1C1C=CC2CC1`, the TGI is more than 100 µM.

The molecule `O=C(NC(C(F)(F)F)(C(F)(F)F)P(=O)(c1ccccc1)c1ccccc1)C(C(F)(F)F)C(F)(F)F` gave a TGI of more than 100 µM.

For the molecule `O=C1CC(=O)NC(=NN2C(=O)CSC2c2ccc(Cl)c(Cl)c2)N1` (configuration not stated), the TGI is more than 100 µM.

The molecule `COC(=O)[C@H](Cc1ccccc1)NC(=O)NCCN(CCNC(=O)N[C@@H](Cc1ccccc1)C(=O)OC)C(=O)N[C@@H](Cc1ccccc1)C(=O)OC` had a TGI of 31.5 µM.

Consider `COc1cc2c(cc1OC)-c1[nH]c3ccc(C#N)cc3c1CC(=O)N2`, for which the TGI was more than 100 µM.

`COc1cc(Br)c(OC)c2c(OC)cc(C)cc12` showed a TGI of more than 100 µM.

`CCOC(=O)/C(N=Nc1ccc(-n2c(C)nc3ccccc3c2=O)cc1)=C(/C)O` returned a TGI of more than 100 µM.

`C[C@@]12C=CC3C/C(=N\C(N)=S)C=C(CCCC4OCCO4)[C@]3(CC1)C2` (some centres not stated) registered a TGI of 87.8 µM.

Take `CSc1nc2ccccc2c(=O)n1/N=C1\C(=O)N(CN2CCCCC2)c2ccc(Cl)cc21`: the TGI was more than 100 µM.

The next assay deals with NCI-H460 lung. Description: NCI tumour cell line growth inhibition, 48 h.
`O=C(c1ccc(Cl)cc1Cl)N(C(=O)N1CCC(c2ccccc2)CC1)c1ccccc1` gave a TGI of more than 100 µM.

The molecule `COC(=O)CNC(=O)C(C)NC(=O)C(CC(=O)OCc1ccccc1)NC(=O)OCc1ccccc1` (stereo not drawn) (Cbz-Asp(OBn)-Ala-Gly-OMe; configuration not given here) had a TGI of more than 100 µM.

For `Oc1ccccc1/C=N/Nc1nnc2c3ccccc3c3ccccc3c2n1`, the TGI was more than 100 µM.

For `CC(C)=CCOc1cc(NC(=S)c2ccoc2C)ccc1Cl`, the TGI was more than 100 µM.

`N#CC1(C#N)C2CCCCC23OC(=N)C1(C#N)C(c1ccco1)O3` (configuration not stated): the TGI was more than 100 µM.

In turn, `O=c1n(/N=C/c2ccccc2)c(=O)n2n1C1C=CC2CC1` returned a TGI of more than 100 µM.

On to `O=C(NC(C(F)(F)F)(C(F)(F)F)P(=O)(c1ccccc1)c1ccccc1)C(C(F)(F)F)C(F)(F)F`, for which the TGI is more than 100 µM.

`O=C1CC(=O)NC(=NN2C(=O)CSC2c2ccc(Cl)c(Cl)c2)N1` (configuration not stated) displayed a TGI of more than 100 µM.

`COC(=O)[C@H](Cc1ccccc1)NC(=O)NCCN(CCNC(=O)N[C@@H](Cc1ccccc1)C(=O)OC)C(=O)N[C@@H](Cc1ccccc1)C(=O)OC` returned a TGI of 34.8 µM.

Take `COc1cc2c(cc1OC)-c1[nH]c3ccc(C#N)cc3c1CC(=O)N2`: the TGI is more than 100 µM.

`COc1cc(Br)c(OC)c2c(OC)cc(C)cc12` had a TGI of more than 100 µM.

`CCOC(=O)/C(N=Nc1ccc(-n2c(C)nc3ccccc3c2=O)cc1)=C(/C)O` came in with a TGI of more than 100 µM.

For `C[C@@]12C=CC3C/C(=N\C(N)=S)C=C(CCCC4OCCO4)[C@]3(CC1)C2` (some centres not stated), the TGI was determined as 32 µM.

For the molecule `CC(C)c1ccccc1SC1CC(=O)CC(Sc2ccccc2C(C)C)C12O[C@H](c1ccccc1)[C@@H](c1ccccc1)O2` (some centres not stated), the TGI is more than 100 µM.

Molecule `CSc1nc2ccccc2c(=O)n1/N=C1\C(=O)N(CN2CCCCC2)c2ccc(Cl)cc21` gave a TGI of more than 100 µM.

The subject of another assay is PC-3 prostate. Nature of the assay: NCI tumour cell line growth inhibition, 48 h.
`O=C(c1ccc(Cl)cc1Cl)N(C(=O)N1CCC(c2ccccc2)CC1)c1ccccc1` returned a TGI of more than 100 µM.

`COC(=O)CNC(=O)C(C)NC(=O)C(CC(=O)OCc1ccccc1)NC(=O)OCc1ccccc1` (stereo not drawn) (Cbz-Asp(OBn)-Ala-Gly-OMe; configuration not given here) yielded a TGI of more than 100 µM.

Molecule `Oc1ccccc1/C=N/Nc1nnc2c3ccccc3c3ccccc3c2n1` gave a TGI of more than 100 µM.

In turn, `CC(C)=CCOc1cc(NC(=S)c2ccoc2C)ccc1Cl` showed a TGI of more than 100 µM.

As for `N#CC1(C#N)C2CCCCC23OC(=N)C1(C#N)C(c1ccco1)O3` (configuration not stated), the TGI worked out at 64.6 µM.

With `O=c1n(/N=C/c2ccccc2)c(=O)n2n1C1C=CC2CC1`, the TGI is more than 100 µM.

Turning to `O=C(NC(C(F)(F)F)(C(F)(F)F)P(=O)(c1ccccc1)c1ccccc1)C(C(F)(F)F)C(F)(F)F`, the TGI turned out to be 80.8 µM.

Take `O=C1CC(=O)NC(=NN2C(=O)CSC2c2ccc(Cl)c(Cl)c2)N1` (configuration not stated): the TGI was more than 100 µM.

`COC(=O)[C@H](Cc1ccccc1)NC(=O)NCCN(CCNC(=O)N[C@@H](Cc1ccccc1)C(=O)OC)C(=O)N[C@@H](Cc1ccccc1)C(=O)OC`: the TGI came out at 40.6 µM.

As for `COc1cc2c(cc1OC)-c1[nH]c3ccc(C#N)cc3c1CC(=O)N2`, the TGI is more than 100 µM.

`COc1cc(Br)c(OC)c2c(OC)cc(C)cc12` gave a TGI of more than 100 µM.

In turn, `CCOC(=O)/C(N=Nc1ccc(-n2c(C)nc3ccccc3c2=O)cc1)=C(/C)O` yielded a TGI of more than 100 µM.

The molecule `C[C@@]12C=CC3C/C(=N\C(N)=S)C=C(CCCC4OCCO4)[C@]3(CC1)C2` (some centres not stated) showed a TGI of 50.7 µM.

`CC(C)c1ccccc1SC1CC(=O)CC(Sc2ccccc2C(C)C)C12O[C@H](c1ccccc1)[C@@H](c1ccccc1)O2` (some centres not stated) had a TGI of more than 100 µM.

As to `CSc1nc2ccccc2c(=O)n1/N=C1\C(=O)N(CN2CCCCC2)c2ccc(Cl)cc21`, the TGI is more than 100 µM.

The next assay relates to LOX IMVI melanoma. Nature of the assay: NCI tumour cell line growth inhibition, 48 h.
Molecule `O=C(c1ccc(Cl)cc1Cl)N(C(=O)N1CCC(c2ccccc2)CC1)c1ccccc1` yielded a TGI of more than 100 µM.

The record behind these values is PubChem BioAssay (NCI).
